Non-standard residues stand in square brackets, D forms with d. Residues, ends and D or L forms follow the SMILES beside them. ξ: configuration not given here. *: point of attachment. Boc = CC(C)(C)OC(=O)*; Dha = C=C(N)C(=O)O; ξP = O=C(O)C1CCCN1

For the molecule `Cc1ccc(C2(C#N)C3CC4CC(C3)CC2C4)cc1` (stereo not given), the melting point (in general, the temperature, or range, at which the solid turns liquid) is 99 to 100 °C.

As to `COc1cccc2c1nc(-c1c(F)cccc1F)n2Cc1ccccc1`, the melting point lay within 139 to 141 °C.

In turn, `CS(=O)c1ccc2c(c1)C=C(C(=O)O)C(C(F)(F)F)O2` (stereo not given) yielded a melting point of 148 to 151 °C.

As for `Clc1ccc(Nc2cncc(-n3cc4ccccc4n3)n2)cc1`, the melting point fell in the range of 249 to 252 °C.

The molecule `COc1ccc(-n2nc(-c3ccc(F)cc3)c(-c3ccncc3)c2-c2c[nH]cn2)cc1` gave a melting point of 124 to 126 °C.

In the case of `COCCOc1ccc(CCCOc2nn(C)cc2CC(=O)O)c(Oc2ncc(C(F)(F)F)cc2Cl)c1`, the melting point was 127 to 129 °C.

On to `CC(C)(C)c1nc2cc(N3CCCCC3)c(NC(N)=S)cc2s1`, for which the melting point lay within 228 to 232 °C.

Molecule `CC(C)Cn1c(CNC(=O)OC(C)(C)C)c(-c2ccc(Cl)cc2)c2cc(C(=O)O)ccc2c1=O` gave a melting point of 226 to 227 °C.

Molecule `FC(F)(F)c1cc(Cl)c(-n2cc(C3CC3(Br)Br)c(C=C(Br)Br)n2)c(Cl)c1` (stereo not given) displayed a melting point of 106 to 107 °C.

With `CC(C)C(=O)NCCc1ccc(NC(=O)C=C2CC(C(=O)O)Nc3cc(Cl)cc(Cl)c32)cc1` (racemic), the melting point lay in the range of 216 to 218 °C.

The molecule `O=c1cnc2c(NCCO)nc(SCc3cccc(Cl)c3F)nc2[nH]1` yielded a melting point of 195 to 196 °C.

The molecule `CC(=O)NCc1ccc(CN2CCN(c3ccc(F)cc3)CC2)cc1[N+](=O)[O-]` came in with a melting point of 112 to 114 °C.

Turning to `COc1ccc2nc(C)c(CCCl)c(=O)n2c1`, the melting point came out at 150 °C.

Consider `CCC(C)NC1=NS(=O)(=O)c2cc(C(=O)O)ccc2N1` (stereo not given), for which the melting point was greater than 310 °C.

`O=S1(=O)c2cccc3cccc(c23)N1CCCN1CCN(c2cccc(O)c2)CC1` returned a melting point of 175 °C.

`CC(C)(O)COC1CCNCC1` displayed a melting point of 80 to 82 °C.

The molecule `CCCOc1ccc(C)c2c(=O)c(-c3ccc(OC)cc3)c[nH]c12` displayed a melting point of 192 to 193 °C.

In the case of `CCCCCCCCCCCCCCCCCCNC(=O)N1CCN(C(=O)c2ccc(CCl)cc2)CC1`, the melting point fell in the range of 68 to 70 °C.

Regarding `CC(C)(C)c1cc(CSP(=S)(C2CCCCC2)C2CCCCC2)cc(C(C)(C)C)c1O`, the melting point lay within 129 to 131 °C.

As for `Cn1cc(C2=C(c3cn(CCCOS(C)(=O)=O)c4ccccc34)C(=O)NC2=O)c2ccccc21`, the melting point is 202 to 204 °C.

`CCCCCCCCc1ccc(CCC(CO)(CO)[N+](=O)[O-])cc1` displayed a melting point of 80 to 82 °C.

With `Cc1ncc(CN2CCc3cc(-c4ccccc4)ccc3C2)c(N)n1`, the melting point is 186 to 188 °C.

With `N#CC1=Nc2cc(Cl)ccc2Oc2ccccc21`, the melting point lay within 161 to 168 °C.

As for `Cc1cc2c(cc1C(F)(F)F)NC(=O)CC(c1cccc(-c3nc(CO)sc3C)c1)=N2`, the melting point lay within 214 to 217 °C.

For `C[Si](C)(O[C@@H]1c2cc(Br)ccc2-c2ccc(Br)cc2[C@H]1O[Si](C)(C)c1ccccc1)c1ccccc1` (relative stereo), the melting point lay in the range of 103 to 104 °C.

`CCOC(=O)CC(=O)Nc1nc(-c2ccc(OC)cc2)c(-c2cccnc2)s1` returned a melting point of 202 to 203 °C.

In the case of `CN1C(C)(C)CC(O)(CN2C(=O)C3(COc4cc5c(cc43)OCO5)c3ccccc32)CC1(C)C` (stereo not given), the melting point fell in the range of 210 to 214 °C.

With `COC(=O)c1cc(O)nc2ccccc12`, the melting point is 240 to 241 °C.

The molecule `Cn1cc(-c2cccc(F)c2)c(C(=O)NCCNC(=O)OC(C)(C)C)n1` returned a melting point of 124 °C.

Consider `CSCC[C@H](NC(=O)N[C@@H](CCSC)C(=O)O)C(=O)O`, for which the melting point was 167 to 180 °C.

In the case of `COc1cc(C(O)c2ccc(C(=O)N(C(C)C)C3CCCCC3)cc2)cc(OC)c1OC` (stereo not given), the melting point fell in the range of 158 to 160 °C.

Molecule `Cc1nn(-c2ccc([N+](=O)[O-])cc2F)c(=O)n1C(F)F` had a melting point of 72 to 77 °C.

In the case of `Cn1ncnc1COc1nn2c(-c3ccccc3)nnc2cc1C1CCC1`, the melting point came out at 228 °C.

As for `CCCCCN(Cc1ccc(-c2ccccc2S(=O)(=O)NC(=O)c2ccccc2Cl)cc1)C(=O)N(Cc1ccccc1)c1ccccc1`, the melting point is greater than 60 °C.

For the molecule `CCCCCOc1ccc(C2SC(=O)NC2=O)cc1OCC` (stereo not given), the melting point fell in the range of 104 to 106 °C.

The molecule `Cc1nc(C2CCCCC2)c2nc(-c3ccccc3)cc-2[nH]1` yielded a melting point greater than 280 °C.

Consider `N#CCc1ccc(OCCc2coc(-c3ccccc3)n2)cc1`, for which the melting point was in the range of 81 to 83 °C.

With `Cc1nc(Nc2c([N+](=O)[O-])cc(C(F)(F)F)c(Cl)c2[N+](=O)[O-])c(Cl)cc1Cl`, the melting point was 128 to 130 °C.

`c1ccc(Cc2n[nH]c(NCCCOc3cccc(CN4CCCCC4)c3)n2)cc1` gave a melting point of 143 to 144 °C.

Molecule `COC(=O)c1c(SCc2ccc(OC)cc2)nc(-c2ccccc2)n1Cc1cc2c(cc1Cl)OCO2` displayed a melting point of 158 °C.

The molecule `O=C(Nc1ccc(F)c([N+](=O)[O-])c1)c1ccc(Cl)c(Cl)c1` gave a melting point of 202 to 204 °C.

Molecule `CC(C)(C)OC(=O)NC1C=C(C(=O)O)OC1` (stereo not given) came in with a melting point of 117 to 120 °C.

Turning to `CC1CC(C)CN(C(=O)c2ccccc2)C1` (stereo not given), the melting point is 107 to 109 °C.

Take `COC(=O)Nc1nc2ccccc2n1-c1nc(N2CCOCC2)nc(N2CCOCC2)n1`: the melting point lay in the range of 206 to 209 °C.

`Cc1oc(-c2ccc(SC(F)(F)F)cc2)nc1CCOc1ccc(CN(O)C(N)=O)cc1` came in with a melting point of 157 to 159 °C.

Turning to `COc1nc2cc(Br)cc(C=O)c2nc1OC`, the melting point lay in the range of 179 to 182 °C.

Turning to `Cc1ccc2c(c1)nc(/C=C/c1ccccc1)n2-c1ccccn1`, the melting point was in the range of 145 to 146 °C.

Molecule `C=C(NC(=O)C1CCCN1C(=O)OC(C)(C)C)C(=O)O` (stereo not given) (Boc-[ξP]-[Dha]-OH) returned a melting point of 154 to 156 °C.

As to `O=C(O)CCCCCc1nn(-c2ccc(F)cc2)c2c1CCCC2`, the melting point is 95 to 96 °C.

`CN(C)CCn1c(=O)c2cccc([N+](=O)[O-])c2c2cnc3cc4c(cc3c21)OCO4` yielded a melting point of 96 to 97 °C.

For the molecule `N/N=C/c1ccc(-c2ncn(-c3ccc(OC(F)(F)F)cc3)n2)cc1`, the melting point was in the range of 222 to 226 °C.

For `CCN1C(=O)CCCc2ccc(Nc3ncc(Cl)c(Nc4c(F)cccc4C(=O)NC)n3)cc21`, the melting point fell in the range of 228 to 235 °C.

On to `CCC(=O)NCCc1c[nH]c2cc(Cl)c(OC)cc12`, for which the melting point fell in the range of 100 to 101 °C.

`Cc1nc2[nH]c3ccccc3c2c(N)c1C(N)=O` had a melting point of 305 to 308 °C.

Regarding `Cc1ncccc1CCCC(C)NC(=O)C(O)c1ccccc1` (stereo not given), the melting point is 133 to 134 °C.

Molecule `CC1(C)Oc2ccc(S(=O)(=O)C(F)(F)C(F)(F)C(F)(F)F)cc2[C@@H](N)[C@@H]1O` (relative stereo) had a melting point of 176 to 177 °C.

`N#CC(NC(=O)c1cccn2cc(-c3ccccc3)nc12)c1cccc(Cl)c1` (stereo not given) came in with a melting point of 210 to 211 °C.

In turn, `Cn1c(=O)c2[nH]c(C=Cc3cccc([N+](=O)[O-])c3)nc2n(C)c1=O` showed a melting point greater than 300 °C.

`O=[N+]([O-])c1ccc2c(c1)C(n1ccccc1=S)=CC(CF)(CF)O2` showed a melting point of 209 to 210 °C.

For the molecule `CC(C)(C)OC(=O)NCC(=O)NCCCN1CCN(CCCNc2cccc3c2C(=O)c2ccccc2C3=O)CC1`, the melting point was 118 °C.

Regarding `CC(O)c1cccc2cccc(O)c12` (stereo not given), the melting point was 89 to 90 °C.

On to `CNC1(C)CN(c2nc3c(cc2F)c(=O)c(C(=O)O)cn3C2CC2)C1`, for which the melting point fell in the range of 283 to 286 °C.

For the molecule `O=C(Oc1ccc(C(=O)OCc2ccccc2)cc1)C(=O)Oc1ccc(C(=O)OCc2ccccc2)cc1`, the melting point was 106 to 108 °C.

Regarding `CCCCNc1nc2cc(C)nn2c2ccncc12`, the melting point is 116 °C.

For `Clc1ccc(C=NOCC2CO2)cc1` (stereo not given), the melting point lay in the range of 69 to 70 °C.

The molecule `O=C(Nc1ccccc1)Nn1ccc2ccccc21` returned a melting point of 243 °C.

Turning to `CCOC(=O)C1=C(COCC=NO)NC(C)=C(C(=O)OC)C1c1ccccc1Cl` (stereo not given), the melting point lay within 161 to 162 °C.

As for `CN1C(=O)C(NC(=O)CCc2ccc(Cl)cc2Cl)CC(=O)c2ccccc21` (stereo not given), the melting point was 182 to 184 °C.

`COc1ccc(C2CC(=O)OC(=O)C2)cc1` gave a melting point of 144 to 149 °C.

In turn, `CC(=O)Nc1cccc2c1SCC=C2` displayed a melting point of 98 to 100 °C.

`COc1cccc(CN2CCN(C)CC2C2=NCCN2)c1OC` (stereo not given) registered a melting point of 160 to 162 °C.

`CCN(C(=O)Nc1ccccc1CCc1cc(C(C)(C)C)c(O)c(C(C)(C)C)c1)C1CCN(Cc2ccccc2)CC1` returned a melting point of 149 to 151 °C.

The molecule `COc1nc(NC(=O)NS(=O)(=O)c2cccc3cccnc23)nc(OC)n1` gave a melting point of 151 to 153 °C.

In turn, `CCC(CC)c1nn(-c2ncc(C(F)(F)F)cn2)cc1CCCOc1c(C)cccc1CC(=O)O` yielded a melting point of 110 to 111 °C.

Take `CCCCCCCCCCCCCCOc1ccc(CN(C(C)=O)c2cccc(CBr)c2)cc1`: the melting point lay in the range of 56 to 58 °C.

In the case of `O=C1CNc2ncc(I)cc2N1Cc1cc(C(F)(F)F)ccc1Cl`, the melting point fell in the range of 252 to 253 °C.

Take `O=c1[nH]c(=O)n(CCCCN2CC=C(c3ccccc3)CC2)c2cc([N+](=O)[O-])ccc12`: the melting point was 242 to 244 °C.

Consider `O=C(Cc1csc(-c2cccc(O)c2)n1)NC1C(=O)N2C(C(=O)OC(c3ccccc3)c3ccccc3)=CCSC12` (stereo not given), for which the melting point was in the range of 152 to 154 °C.

In the case of `Cn1ncc(Cl)c(NCCCCl)c1=O`, the melting point fell in the range of 42 to 46 °C.

With `CCOCc1nc2c(N)nc3ccccc3c2n1CC1(O)CCOCC1`, the melting point is 212 to 214 °C.

In turn, `O=C1Nc2ccc(F)c(F)c2C(C#Cc2ccccn2)(C(F)(F)F)N1` (racemic) registered a melting point of 219 to 220 °C.

Take `CCOC(=O)/C=C/c1cc2nc(CC)n(CCc3ccccc3)c(=O)c2cc1F`: the melting point was in the range of 140 to 142 °C.

The molecule `Cn1ncc(/C=C/C(=O)Nc2ccc(CS(C)=O)cc2)c1-c1ccc(F)cc1` (stereo not given) displayed a melting point of 240 to 241 °C.

Molecule `O=C(Nc1ccc(F)cc1)c1cn2nc(N3CCN(C(=O)c4ccccc4C(F)(F)F)CC3)ccc2n1` had a melting point of 115 to 117 °C.

Regarding `Cc1cccc(Cl)c1CNc1c(NC(C)(C)C)c(=O)c1=O`, the melting point is 254 to 257 °C.

These data come from a melting point compilation (Tetko et al.; mined from patent text by program, amines drawn as free bases though some values may be those of a salt).
